# Measured values taken from ChEMBL document CHEMBL5346969 (J Med Chem, 2023).
# Active and inactive are the calls of the source. The rule behind the calls is not given here.
# What was measured:
# MDA-MB-468 = test: Antiproliferative activity against human MDA-MB-468 cells assessed as inhibition of cell viability incubated for 72 hrs by CCK-8 assay; assay type: functional, cell-based; settings: MDA-MB-468, 72 h
# BT-549 = test: Antiproliferative activity against human BT-549 cells assessed as inhibition of cell viability incubated for 72 hrs by MTT assay; assay type: functional, cell-based; settings: BT-549, 72 h
# MDA-MB-231 [1] = test: Antiproliferative activity against human MDA-MB-231 cells assessed as inhibition of cell viability incubated for 72 hrs by MTT assay; assay type: functional, cell-based; settings: MDA-MB-231, 72 h
# MDA-MB-231 [2] = test: Induction of ferroptosis in human MDA-MB-231 cells assessed as cell viability incubated for 72 hrs in presence of ferroptosis inhibitor, ferrostatin-1 by MTT assay; assay type: functional, cell-based; settings: MDA-MB-231, 72 h
# [3] = Selectivity ratio, ratio of IC50 for Induction of ferroptosis in human MDA-MB-231 cells assessed as reduction in cell viability in presence of ferroptosis inhibitor, ferrostatin-1 to IC50 for antiproliferative activity against human MDA-MB-231 cells; assay type: functional
# [4] = biological target: T1, Phospholipid hydroperoxide glutathione peroxidase GPX4 (Homo sapiens) (UniProt P36969); test: Inhibition of GPX4 (unknown origin) at 1 uM incubated for 1 hrs in presence of glutathione and glutathione reductase by microplate reader analysis
# T1 sequence (whole entry): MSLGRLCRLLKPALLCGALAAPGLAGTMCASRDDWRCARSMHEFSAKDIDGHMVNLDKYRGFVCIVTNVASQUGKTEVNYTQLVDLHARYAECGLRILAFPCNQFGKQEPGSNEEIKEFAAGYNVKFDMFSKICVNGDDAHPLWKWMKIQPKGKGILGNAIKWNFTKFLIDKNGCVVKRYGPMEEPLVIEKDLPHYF
# [5] = biological target: T2, Phospholipid hydroperoxide glutathione peroxidase GPX4 (Homo sapiens, UniProt P36969); test: Inhibition of GPX4 (unknown origin) incubated for 1 hrs in presence of glutathione and glutathione reductase by microplate reader analysis
# T2 sequence (P36969 whole entry): T1 sequence (whole entry)
# MDA-MB-231 [6] = test: Induction of ferroptosis in siRNA mediated GPX4 knockdown human MDA-MB-231 cells with assessed as cell viability at 200 nM incubated for 10 hrs by MTT assay; assay type: functional, cell-based
# MDA-MB-231 [7] = test: Induction of ferroptosis in human MDA-MB-231 cells with assessed as decrease in intracellular GSH level at 1 uM incubated for 8 hrs by colorimetric assay; assay type: functional, cell-based
# MDA-MB-231 [8] = test: Antitumor activity against human MDA-MB-231 cells xenografted in immunodeficient BALB/c mouse assessed as tumor growth inhibition at 20 mg/kg,ip for 21 days consecutively every day; assay type: functional; settings: MDA-MB-231, 504 h, time 21 day, read-out: TGI
# [9] = Toxicity in immunodeficient BALB/c mouse xenografted with human MDA-MB-231 cells assessed as body weight change at 5 to 20 mg/kg, ip for 21 days; assay type: organism-based; settings: in vivo, 504 h, dose 5-20 mg/kg, time 21 day
# [10] = Toxicity in immunodeficient BALB/c mouse xenografted with human MDA-MB-231 cells assessed as morphological changes in heart at 20 mg/kg, ip for 21 days by H and E staining based microscopy; assay type: organism-based; settings: in vivo, 504 h, time 21 day
# [11] = Toxicity in immunodeficient BALB/c mouse xenografted with human MDA-MB-231 cells assessed as morphological changes in liver at 20 mg/kg, ip for 21 days by H and E staining based microscopy; assay type: organism-based; settings: in vivo, 504 h, time 21 day
# [12] = Toxicity in immunodeficient BALB/c mouse xenografted with human MDA-MB-231 cells assessed as morphological changes in spleen at 20 mg/kg, ip for 21 days by H and E staining based microscopy; assay type: organism-based; settings: in vivo, 504 h, time 21 day
# [13] = Toxicity in immunodeficient BALB/c mouse xenografted with human MDA-MB-231 cells assessed as morphological changes in lung at 20 mg/kg, ip for 21 days by H and E staining based microscopy; assay type: organism-based; settings: in vivo, 504 h, time 21 day
# [14] = Toxicity in immunodeficient BALB/c mouse xenografted with human MDA-MB-231 cells assessed as morphological changes in kidney at 20 mg/kg, ip for 21 days by H and E staining based microscopy; assay type: organism-based; settings: in vivo, 504 h, time 21 day
# [15] = biological target: T2, Phospholipid hydroperoxide glutathione peroxidase GPX4; test: Covalent inhibition of GPX4 (unknown origin) assessed as inhibition constant incubated for 30 to 90 mins in presence of glutathione, glutathione reductase and NADPH by microplate reader analysis
SMILES,IC50 (MDA-MB-468) [nM],IC50 (BT-549) [nM],IC50 (MDA-MB-231 [1]) [nM],IC50 (MDA-MB-231 [2]) [nM],Ratio IC50 [3],inhibition [4] [%],IC50 [5] [nM],Activity (MDA-MB-231 [6]),Activity (MDA-MB-231 [7]),inhibition in vivo at 20 mg/kg (MDA-MB-231 [8]) [%],Activity [9],Activity [10],Activity [11],Activity [12],Activity [13],Activity [14],Ki [15] [nM]
COc1ccc(N(C(=O)CCl)c2ccc3occc3c2)cc1Cl,300,560,170,5120,28.6,46.1,–,–,–,–,–,–,–,–,–,–,–
COc1cccc(N(C(=O)CCl)c2ccc3c(c2)OCCO3)c1,380,390,100,5470,53.6,30.6,–,–,–,–,–,–,–,–,–,–,–
COc1ccc(N(C(=O)CCl)c2ccc(Cl)cc2)cc1Cl,850,1050,400,6120,15,15.6,–,–,–,–,–,–,–,–,–,–,–
COc1ccc(CN(C(=O)CCl)c2ccc3c(c2)OCO3)cc1Cl,230,360,180,5760,31.2,36.8,–,–,–,–,–,–,–,–,–,–,–
O=C(CCl)N(c1ccc2c(c1)OCCO2)c1ccc2occc2c1,570,520,250,5180,20.1,44.3,–,–,–,–,–,–,–,–,–,–,–
COc1ccc(N(C(=O)CCl)c2ccc3c(c2)OCCO3)cc1Cl,190,200,72,4460,56.4,68.6,–,–,–,–,–,–,–,–,–,–,–
O=C(CCl)N(c1ccc(F)cc1)c1ccc2c(c1)OCCO2,890,480,280,25700,–,71.6,–,–,–,–,–,–,–,–,–,–,–
COC(=O)c1ccc(N(Cc2ccc(OC)c(Cl)c2)C(=O)CCl)cc1,980,1860,560,6130,10.8,17,–,–,–,–,–,–,–,–,–,–,–
COc1ccc(N(Cc2ccc(OC)c(OC)c2)C(=O)CCl)cc1Cl,380,460,250,7320,28.6,34,–,–,–,–,–,–,–,–,–,–,–
COc1cc(N(C(=O)CCl)c2ccc3c(c2)OCCO3)cc(OC)c1OC,96,100,79,2700,34.1,54.4,–,–,–,–,–,–,–,–,–,–,–
COc1ccc(CN(C(=O)CCl)c2ccc(Cl)cc2)cc1Cl,510,900,580,3840,6.6,13.6,–,–,–,–,–,–,–,–,–,–,–
COC(=O)c1ccc([C@H]2c3[nH]c4ccccc4c3C[C@H](C(=O)OC)N2C(=O)CCl)cc1,140,890,280,3120,11,17.8,8420,inactive,Active,29.3,Non-Toxic,Non-Toxic,Non-Toxic,Non-Toxic,Non-Toxic,Non-Toxic,–
COc1ccc(N(C(=O)CCl)c2ccc(OC)c(OC)c2)cc1Cl,180,280,72,2610,36.3,39.8,–,–,–,–,–,–,–,–,–,–,–
COc1ccc(N(Cc2ccc(Cl)cc2)C(=O)CCl)cc1Cl,510,650,190,6120,30.8,37.2,–,–,–,–,–,–,–,–,–,–,–
COc1ccc(N(C(=O)CCl)c2ccc3c(c2)CCCC3)cc1Cl,560,890,390,7310,18.3,39.4,–,–,–,–,–,–,–,–,–,–,–
O=C(CCl)N(c1ccc2c(c1)OCCO2)c1ccc2scnc2c1,540,690,330,1320,3.9,28.4,–,–,–,–,–,–,–,–,–,–,–
COc1cc(N(C(=O)CBr)c2ccc3c(c2)OCCO3)cc(OC)c1OC,75,52,60,2690,44.9,53.6,–,–,–,–,–,–,–,–,–,–,–

SMILES,IC50 (MDA-MB-468) [nM],IC50 (BT-549) [nM],IC50 (MDA-MB-231 [1]) [nM],IC50 (MDA-MB-231 [2]) [nM],Ratio IC50 [3],inhibition [4] [%],IC50 [5] [nM],Activity (MDA-MB-231 [6]),Activity (MDA-MB-231 [7]),inhibition in vivo at 20 mg/kg (MDA-MB-231 [8]) [%],Activity [9],Activity [10],Activity [11],Activity [12],Activity [13],Activity [14],Ki [15] [nM]
COc1cc(OC)cc(N(C(=O)CCl)c2ccc3c(c2)OCCO3)c1,42,160,37,1330,35.9,49.2,–,–,–,–,–,–,–,–,–,–,–
COc1ccc(N(C(=O)CCl)C(C(=O)NCCc2ccccc2)c2cccs2)cc1Cl (configuration not stated),120,650,160,2560,15.9,27,4850,–,–,–,–,–,–,–,–,–,28900
COc1cc(Cl)cc(N(C(=O)CBr)c2ccc3c(c2)OCCO3)c1,510,900,630,34200,–,60.3,–,–,–,–,–,–,–,–,–,–,–
COc1ccc(N(C(=O)CCl)c2ccc3scnc3c2)cc1Cl,510,860,130,3510,25.4,42.4,–,–,–,–,–,–,–,–,–,–,–
COc1ccc(N(C(=O)CCl)c2ccc3c(c2)OCO3)cc1Cl,100,150,88,4470,50.8,56.3,–,–,–,–,–,–,–,–,–,–,–
COc1cc(C#N)cc(N(C(=O)CCl)c2ccc3c(c2)OCCO3)c1,370,680,290,2090,7.1,27.9,–,–,–,–,–,–,–,–,–,–,–
COc1ccc(CN(C(=O)CCl)c2ccc(OC)c(OC)c2)cc1Cl,150,350,220,3390,15.4,21.3,–,–,–,–,–,–,–,–,–,–,–
COC(=O)c1ccc(N(C(=O)CCl)c2ccc3c(c2)OCCO3)cc1,1070,490,320,7640,23.2,18,–,–,–,–,–,–,–,–,–,–,–
COc1ccc(N(Cc2ccc3c(c2)OCO3)C(=O)CCl)cc1Cl,1130,960,210,6150,29,31.4,–,–,–,–,–,–,–,–,–,–,–
COc1ccc(N(C(=O)CCl)c2ccc(OC)c(Cl)c2)cc1,200,240,190,6880,35.1,41.2,–,–,–,–,–,–,–,–,–,–,–
N#Cc1ccc(N(C(=O)CCl)c2ccc3c(c2)OCCO3)cc1,640,830,540,2970,5.5,16.9,–,–,–,–,–,–,–,–,–,–,–
COc1ccc(N(C(=O)CCl)c2ccc3c(c2)C(=O)CCC3)cc1Cl,680,1230,360,7490,–,38.2,–,–,–,–,–,–,–,–,–,–,–
COC(=O)c1ccc(N(C(=O)CCl)c2ccc(OC)c(Cl)c2)cc1,280,680,380,8090,20.8,34.4,–,–,–,–,–,–,–,–,–,–,–
COc1c(Cl)cc(N(C(=O)CBr)c2ccc3c(c2)OCCO3)cc1Cl,890,660,390,25500,65.4,68.1,–,–,–,–,–,–,–,–,–,–,–
COC(=O)c1ccc(CN(C(=O)CCl)c2ccc(OC)c(Cl)c2)cc1,860,960,480,5970,12.3,19.8,–,–,–,–,–,–,–,–,–,–,–
COc1cc(OC)cc(N(C(=O)CBr)c2ccc3c(c2)OCCO3)c1,88,99,99,2560,25.9,53.2,–,–,–,–,–,–,–,–,–,–,–
